“And” between values parts separate entries of the source, which are not always exact repeats. Equal values may be shown once. “Also recorded” adds a separate entry of the source. Read-outs that look alike come from different tables or passages of the source. Marks after values point to notes of the source that are not given here.
Experiments:
human CB1 receptor [1] = biological target: T1, human CB1 receptor (Homo sapiens, UniProt P21554); details: determined at 100 µM; cited from earlier work
human GPR55 = human GPR55 (Homo sapiens, UniProt Q9Y2T6); assay: β-arrestin recruitment assay (PathHunter), CHO cells expressing GPR55; details: for inhibition at 10 µM: CHO; for IC50: GPR55 IC50, β-arrestin recruitment, antagonist mode vs. LPI (1 µM); for agonist effect on β-arrestin recruitment at GPR55: test compound 10 µM, related to effect of LPI 1 µM = 100%; for functional property at GPR55 (agonist/antagonist): in words
Sequence of human GPR55 (Q9Y2T6 whole entry): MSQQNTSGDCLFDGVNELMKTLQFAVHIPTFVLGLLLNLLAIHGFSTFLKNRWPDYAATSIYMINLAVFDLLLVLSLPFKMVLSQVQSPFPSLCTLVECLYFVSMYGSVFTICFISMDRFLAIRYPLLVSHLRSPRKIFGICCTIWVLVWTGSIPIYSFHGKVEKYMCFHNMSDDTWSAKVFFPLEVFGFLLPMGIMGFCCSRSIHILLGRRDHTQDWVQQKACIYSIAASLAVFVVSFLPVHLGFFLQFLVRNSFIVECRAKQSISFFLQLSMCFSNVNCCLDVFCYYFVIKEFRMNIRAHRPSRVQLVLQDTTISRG

human GPR18 [2] = biological target: T2, human GPR18 (Homo sapiens, UniProt Q14330); details: for agonist effect on β-arrestin recruitment at GPR18: test compound 10 µM, related to effect of Δ9-THC 10 µM = 100%; for functional property at GPR18 (agonist/antagonist): in words
T2 sequence (Q14330 1-331): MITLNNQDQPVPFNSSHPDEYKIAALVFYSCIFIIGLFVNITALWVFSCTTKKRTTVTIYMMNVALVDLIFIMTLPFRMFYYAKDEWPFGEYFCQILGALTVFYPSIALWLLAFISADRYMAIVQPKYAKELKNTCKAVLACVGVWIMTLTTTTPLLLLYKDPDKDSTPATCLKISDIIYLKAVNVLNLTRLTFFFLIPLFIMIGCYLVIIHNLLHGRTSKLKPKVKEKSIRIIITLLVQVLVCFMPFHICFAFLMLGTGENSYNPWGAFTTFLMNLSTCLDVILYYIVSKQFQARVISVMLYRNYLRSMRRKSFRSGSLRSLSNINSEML

human GPR18 [3] = biological target: T2, human GPR18; assay: cell-based; details: for inhibition at 10 µM: CHO, read-out: % inhibition of Δ9-THC (10 µM)-induced β-arrestin recruitment at GPR18, test compound at 10 µM; for IC50: GPR18 IC50, β-arrestin recruitment, antagonist mode vs. Δ9-THC (10 µM)
human CB2 receptor [4] = biological target: T3, human CB2 receptor (Homo sapiens, UniProt P34972); assay: cAMP accumulation assay, CHO cells expressing CB2; assay type: cell-based; details: for functional property at CB2 (agonist/antagonist): in words, standard ligands partly from the literature
T3 sequence (P34972 whole entry): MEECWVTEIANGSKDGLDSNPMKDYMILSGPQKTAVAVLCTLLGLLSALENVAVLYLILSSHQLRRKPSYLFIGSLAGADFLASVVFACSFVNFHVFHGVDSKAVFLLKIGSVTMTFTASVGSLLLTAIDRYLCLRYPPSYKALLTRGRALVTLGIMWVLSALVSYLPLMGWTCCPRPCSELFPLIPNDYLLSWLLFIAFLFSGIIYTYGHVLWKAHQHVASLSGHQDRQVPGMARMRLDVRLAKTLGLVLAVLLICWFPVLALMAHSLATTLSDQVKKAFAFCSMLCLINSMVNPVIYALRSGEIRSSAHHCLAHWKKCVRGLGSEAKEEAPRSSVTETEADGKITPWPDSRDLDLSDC

human CB2 receptor [5] = biological target: T3, human CB2 receptor; details: in words; cited from earlier work
human CB2 receptor [6] = biological target: T3, human CB2 receptor; assay: Radioligand binding (heterologous competition) vs. [3H]CP55,940 at CB2
human CB1 receptor [7] = biological target: T1, human CB1 receptor; assay: biochemical; assay type: binding; details: membranes of CHO cells expressing human CB1; three independent experiments in duplicates; read-out: Ki CB1, heterologous competition vs. [3H]CP55,940
human CB1 receptor [8] = biological target: T1, human CB1 receptor; assay: cAMP accumulation assay, CHO cells expressing CB1; assay type: cell-based
[9] = read-out: % inhibition of LPI (1 µM)-induced β-arrestin recruitment at GPR55, test compound at 10 µM
[10] = Ki CB2, heterologous competition vs. [3H]CP55,940, membranes of CHO cells expressing human CB2, three independent experiments in duplicates
[11] = membranes of CHO cells expressing human CB2, three independent experiments in duplicates, read-out: Ki CB2, heterologous competition vs. [3H]CP55,940
[12] = at 10 µM, compared to max. effect of full agonist CP55,940 (1 µM) = 100%

T1 sequence (P21554 whole entry): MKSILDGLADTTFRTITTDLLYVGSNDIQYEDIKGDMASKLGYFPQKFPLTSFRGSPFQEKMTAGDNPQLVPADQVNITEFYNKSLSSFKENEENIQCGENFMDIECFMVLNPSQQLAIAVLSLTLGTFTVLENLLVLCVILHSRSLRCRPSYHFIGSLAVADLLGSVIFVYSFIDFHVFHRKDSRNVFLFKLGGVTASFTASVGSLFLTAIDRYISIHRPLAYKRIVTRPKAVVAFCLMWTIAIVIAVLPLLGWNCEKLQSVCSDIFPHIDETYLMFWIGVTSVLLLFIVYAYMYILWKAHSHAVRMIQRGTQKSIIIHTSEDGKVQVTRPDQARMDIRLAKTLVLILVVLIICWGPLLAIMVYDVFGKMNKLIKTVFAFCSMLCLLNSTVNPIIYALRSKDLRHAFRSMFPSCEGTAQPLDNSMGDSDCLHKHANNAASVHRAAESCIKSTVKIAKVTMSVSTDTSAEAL

Compound	EC50 (human GPR55) [µM]	IC50 (human GPR55)	agonist effect on β-arrestin recruitment at GPR55 (human GPR55) [%]	agonist effect on β-arrestin recruitment at GPR18 (human GPR18 [2]) [%]	EC50 (human GPR18 [3]) [µM]	inhibition at 10 µM (human GPR18 [3]) [%]	IC50 (human GPR18 [3])	functional property at CB2 (agonist/antagonist) (human CB2 receptor [4])	inhibition at 10 µM (human GPR55; [9]) [%]	functional property at GPR55 (agonist/antagonist) (human GPR55)	functional property at GPR18 (agonist/antagonist) (human GPR18 [2])	Ki (human CB2 receptor [6]; [10]) [µM]	Ki (human CB1 receptor [7]) [µM]	EC50 (human CB2 receptor [4]) [µM]	EC50 (human CB1 receptor [8]) [µM]	Ki (human CB2 receptor [6]; [11]) [µM]	further results
C=CCc1ccc(O)c(-c2cc(CC=C)ccc2O)c1 [Compound 9, 4-allyl-2-(5-allyl-2-hydroxyphenyl)phenol, reference compound]	> 10	> 10 µM	11	0	> 10	2	> 10 µM										efficacy CB1, cAMP accumulation assay (human CB1 receptor [1]): 62%; inhibition at 10 µM (human GPR55; read-out: % inhibition of LPI (1 µM)-induced β-arrestin recruitment at GPR55): 0%
C=CCc1ccc(O)c(-c2ccc(OC)c(CC=C)c2)c1 [Compound 11, 4′-O-Methylhonokiol, reference compound]	> 10	7.77 ± 0.97 µM	4	0	> 10	37	> 10 µM	agonist	87	antagonist	antagonist	0.0433 ± 0.0171					functional property at CB2 (human CB2 receptor [5]): inverse agonist
CCCCCc1ccc(O)c(-c2cc(CCCCC)ccc2O)c1 [Compound 44]	> 10	> 10 µM	26	0	> 10	128	12 ± 2.7 µM		2				3.13 ± 1.13	2.3 ± 0.71	4.54 ± 0.83	0.833 ± 0.123	
CCCCCCc1ccc(O)c(-c2cc(CCC)ccc2O)c1 [Compound 61, 5-Hexyl-5′-propylbiphenyl-2,2′-diol]	> 10	> 10 µM and ~10 µM	32	0	> 10	139	~10.4 µM and 10.4 µM	almost full efficacy; also recorded: partial agonists; also recorded: agonist	45	antagonist	antagonist	0.0294 ± 0.009	0.145 ± 0.048	0.159 ± 0.018	0.829 ± 0.278		selectivity for CB1 versus GPR18 (human GPR18 [2]; Ki CB1 vs estimated GPR18 IC50): approximately 70 fold; selectivity for CB2 versus GPR18 (human GPR18 [2]; Ki CB2 vs estimated GPR18 IC50): ~350 fold; functional property at CB1 (agonist/antagonist) (human CB1 receptor [8]; in words, standard ligands partly from the literature): full agonistic effects; also recorded: full agonists; also recorded: agonist
CCCCCCc1ccc(O)c(-c2cc(CCCC)ccc2O)c1 [Compound 65]	> 10	> 10 µM	36	0	> 10	116	11 ± 0.7 µM		15				2.6 ± 0.09				efficacy CB2, cAMP accumulation assay (human CB2 receptor [4]; [12]): (49%)^b; efficacy CB1, cAMP accumulation assay (human CB1 receptor [8]; [12]): (95%)^b; Ki (human CB2 receptor [6]; vs. [3H]CP55,940, read-out: Ki CB2): 0.67 µM
CCCCc1ccc(O)c(-c2cc(CCCC)ccc2O)c1 [Compound 43]	> 10	> 10 µM	29	0	> 10	74	12 ± 1.4 µM		0				2.7 ± 1.2	0.378 ± 0.148	7.11 ± 1.43	1.59 ± 0.04	
